Experiment: xn = mol fraction of the nth substance listed
Conditions: 100 kPa

CCO + CC[n+]1ccn(CCOC)c1.N#C[S-]
x2 = 0
Conditions	viscosity [mPa·s]
288.15 K	1.319
293.15 K	1.194
298.15 K	1.085
303.15 K	0.988
313.15 K	0.826
318.15 K	0.757

CC[n+]1ccn(CCOC)c1.N#C[S-] + CCO
viscosity [mPa·s]
Conditions	x1 = 0.1	x1 = 0.1999	x1 = 0.3002	x1 = 0.3995	x1 = 0.5001	x1 = 0.6	x1 = 0.7	x1 = 0.797	x1 = 0.8964	x1 = 1
288.15 K	2.39	3.97	6.39	10.15	15.11	24.1	33.1	53.1	70.8	93.1
293.15 K	–	3.53	5.59	–	12.79	–	27.1	–	55.6	70.8
298.15 K	1.95	3.16	–	7.64	10.96	17.44	22.7	34.3	44.3	55.8
303.15 K	1.77	2.85	–	6.7	9.52	14.4	19.4	28.2	–	–
308.15 K	1.613	–	3.97	5.93	8.32	12.12	–	–	–	–
313.15 K	1.476	2.34	3.58	–	7.34	10.4	14.37	–	24.7	29.7
318.15 K	1.355	–	3.25	4.71	6.51	9.03	12.25	17.33	20.9	24.9
